Reference: patent US20130165450A1, “Novel Thiazol-Carboximide Derivatives as PDK1 Inhibitors” (priority 2010, published 2013)

Target: T1, recombinant human PDK1 (amino acids 51-556) (Homo sapiens, UniProt O15530)
T1 construct: containing amino acids 51-556 of the human PDK1 enzyme; made in house
T1 sequence (O15530 51-556): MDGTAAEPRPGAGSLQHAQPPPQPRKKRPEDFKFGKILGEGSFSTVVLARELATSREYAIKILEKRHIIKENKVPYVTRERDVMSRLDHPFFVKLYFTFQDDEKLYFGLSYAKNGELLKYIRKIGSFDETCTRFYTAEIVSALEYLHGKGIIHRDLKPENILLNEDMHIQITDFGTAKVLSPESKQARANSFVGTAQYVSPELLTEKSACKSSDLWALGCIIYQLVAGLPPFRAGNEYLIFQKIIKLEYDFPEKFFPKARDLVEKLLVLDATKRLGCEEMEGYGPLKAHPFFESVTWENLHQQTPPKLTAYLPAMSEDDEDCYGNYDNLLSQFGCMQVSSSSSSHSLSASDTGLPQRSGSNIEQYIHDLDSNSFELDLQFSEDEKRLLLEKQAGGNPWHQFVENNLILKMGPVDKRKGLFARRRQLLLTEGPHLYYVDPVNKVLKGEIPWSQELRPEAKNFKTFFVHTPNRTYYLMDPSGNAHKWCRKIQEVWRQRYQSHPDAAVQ
Test: PDK1 IMAP fluorescence polarization kinase assay
Format: biochemical
Settings: 10 nM PDK1, 100 nM peptide substrate, 100 nM PIFtide, 2.5 uM ATP, 1.5 hours; rated A-D

Row | Structure (SMILES) | IC50
1 | N[C@@H]1CCCN(c2c(F)cccc2NC(=O)c2csc(-c3cnn(Cc4ccccc4OC(F)(F)F)c3)n2)C1 [Compound 33, N-[2-(3(R)-amino-1-piperidinyl)-3-fluorophenyl]-2-[1-[[2-(trifluoromethoxy)phenyl]methyl]-1H-pyrazol-4-yl]-4-thiazolecarboxamide] | > 1000 nM
2 | N[C@@H]1CCCN(c2c(F)cccc2NC(=O)c2csc(-c3cnn(Cc4c(F)cccc4C(F)(F)F)c3)n2)C1 [Compound 35, N-[2-(3(R)-amino-1-piperidinyl)-3-fluorophenyl]-2-[1-[[2-fluoro-6-(trifluoromethyl)phenyl]methyl]-1H-pyrazol-4-yl]-4-thiazolecarboxamide] | > 1000 nM
3 | N[C@@H]1CCCN(c2c(F)cccc2NC(=O)c2csc(-c3cnn(Cc4ccccc4OC(F)F)c3)n2)C1 [Compound 36, N-[2-(3(R)-amino-1-piperidinyl)-3-fluorophenyl]-2-[1-[[2-(difluoromethoxy)phenyl]methyl]-1H-pyrazol-4-yl]-4-thiazolecarboxamide] | 251 to 1000 nM
4 | N[C@@H]1CCCN(c2c(F)cccc2NC(=O)c2csc(-c3cnn(Cc4ccccc4SC(F)(F)F)c3)n2)C1 [Compound 37, N-[2-(3(R)-amino-1-piperidinyl)-3-fluorophenyl]-2-[1-[[2-[(trifluoromethyl)thio]phenyl]methyl]-1H-pyrazol-4-yl]-4-thiazolecarboxamide] | > 1000 nM
5 | N[C@@H]1CCCN(c2c(F)cccc2NC(=O)c2csc(-c3cnn(CCOCc4ccccc4)c3)n2)C1 [Compound 40, N-[2-(3(R)-amino-1-piperidinyl)-3-fluorophenyl]-2-[1-[2-(phenylmethoxy)ethyl]-1H-pyrazol-4-yl]-4-thiazolecarboxamide] | 251 to 1000 nM
6 | N[C@@H]1CCCN(c2c(F)cccc2NC(=O)c2csc(-c3cnn(CCCOc4ccccc4)c3)n2)C1 [Compound 43, N-[2-(3(R)-amino-1-piperidinyl)-3-fluorophenyl]-2-[1-(3-phenoxypropyl)-1H-pyrazol-4-yl]-4-thiazolecarboxamide] | > 1000 nM
7 | N[C@@H]1CCCN(c2c(F)cccc2NC(=O)c2csc(-c3cnn(CC4CCNCC4)c3)n2)C1 [Compound 47, N-[2-(3(R)-amino-1-piperidinyl)-3-fluorophenyl]-2-[1-(4-piperidinylmethyl)-1H-pyrazol-4-yl]-4-thiazolecarboxamide] | > 1000 nM
8 | N[C@@H]1CCCN(c2c(F)cccc2NC(=O)c2csc(-c3cnn(Cc4ccccc4-c4cn[nH]c4)c3)n2)C1 [Compound 50, N-[2-(3(R)-amino-1-piperidinyl)-3-fluorophenyl]-2-[1-[[2-(1h-pyrazol-4-yl)phenyl]methyl]-1H-pyrazol-4-yl]-4-thiazolecarboxamide] | > 1000 nM

Other lines, results leading:

Row | IC50 | Structure (SMILES)
9 | 51 to 250 nM | N[C@@H]1CCCN(c2c(F)cccc2NC(=O)c2csc(-c3cnn(Cc4cccnc4)c3)n2)C1 [Compound 31, N-[2-(3(R)-amino-1-piperidinyl)-3-fluorophenyl]-2-[1-(3-pyridinylmethyl)-1H-pyrazol-4-yl]-4-thiazolecarboxamide]
10 | 51 to 250 nM | N[C@@H]1CCCN(c2c(F)cccc2NC(=O)c2csc(-c3cnn(Cc4c(F)cccc4F)c3)n2)C1 [Compound 32, N-[2-(3(R)-amino-1-piperidinyl)-3-fluorophenyl]-2-[1-[(2,6-difluorophenyl)methyl]-1H-pyrazol-4-yl]-4-thiazolecarboxamide]
11 | 51 to 250 nM | Nc1ccc(N2CCC3(CC2)OCCO3)c(NC(=O)c2csc(-c3cnn(Cc4cccs4)c3)n2)c1 [Compound 34, N-[5-amino-2-(1,4-dioxa-8-azaspiro[4.5]dec-8-yl)phenyl]-2-[1-(2-thienylmethyl)-1H-pyrazol-4-yl]-4-thiazolecarboxamide]
12 | 251 to 1000 nM | N[C@@H]1CCCN(c2c(F)cccc2NC(=O)c2csc(-c3cnn(Cc4c(F)cc(F)cc4F)c3)n2)C1 [Compound 38, N-[2-(3(R)-amino-1-piperidinyl)-3-fluorophenyl]-2-[1-[(2,4,6-trifluorophenyl)methyl]-1H-pyrazol-4-yl]-4-thiazolecarboxamide]
13 | 251 to 1000 nM | O=C(Nc1ccccc1N1CCNCC1)c1csc(-c2cnn(Cc3cc(F)ccc3F)c2)n1 [Compound 39, 2-[1-[(2,5-difluorophenyl)methyl]-1H-pyrazol-4-yl]-N-[2-(1-piperazinyl)phenyl]-4-thiazolecarboxamide]
14 | 51 to 250 nM | N[C@@H]1CCCN(c2c(F)cccc2NC(=O)c2csc(-c3cnn(Cc4ccccc4CO)c3)n2)C1 [Compound 42, N-[2-(3(R)-amino-1-piperidinyl)-3-fluorophenyl]-2-[1-[[2-(hydroxymethyl)phenyl]methyl]-1H-pyrazol-4-yl]-4-thiazolecarboxamide]
15 | 251 to 1000 nM | COC(=O)c1cccc(F)c1Cn1cc(-c2nc(C(=O)Nc3cccc(F)c3N3CCC[C@@H](N)C3)cs2)cn1 [Compound 45, methyl 2-[[4-[4-[[[2-(3(R)-amino-1-piperidinyl)-3-fluorophenyl]amino]carbonyl]-2-thiazolyl]-1H-pyrazol-1-yl]methyl]-3-fluorobenzoate]
16 | 51 to 250 nM | N[C@@H]1CCCN(c2c(F)cccc2NC(=O)c2csc(-c3cnn(Cc4c(F)cccc4CO)c3)n2)C1 [Compound 46, N-[2-(3(R)-amino-1-piperidinyl)-3-fluorophenyl]-2-[1-[[2-fluoro-6-(hydroxymethyl)phenyl]methyl]-1H-pyrazol-4-yl]-4-thiazolecarboxamide]
17 | 251 to 1000 nM | N[C@@H]1CCCN(c2c(F)cccc2NC(=O)c2csc(-c3cnn(Cc4ccccc4Br)c3)n2)C1 [Compound 49, N-[2-(3(R)-amino-1-piperidinyl)-3-fluorophenyl]-2-[1-[(2-bromophenyl)methyl]-1H-pyrazol-4-yl]-4-thiazolecarboxamide]
18 | 251 to 1000 nM | NCc1ccccc1Cn1cc(-c2nc(C(=O)Nc3cccc(F)c3N3CCC[C@@H](N)C3)cs2)cn1 [Compound 51, 2-[1-[[2-(aminomethyl)phenyl]methyl]-1H-pyrazol-4-yl]-N-[2-(3(R)-amino-1-piperidinyl)-3-fluorophenyl]-4-thiazolecarboxamide]
19 | 51 to 250 nM | N[C@@H]1CCCN(c2c(F)cccc2NC(=O)c2csc(-c3cnn(Cc4cccc(F)c4F)c3)n2)C1 [Compound 52, N-[2-(3(R)-amino-1-piperidinyl)-3-fluorophenyl]-2-[1-[(2,3-difluorophenyl)methyl]-1H-pyrazol-4-yl]-4-thiazolecarboxamide]
